From patent US9758492B2, “IDO inhibitors” (Bristol-Myers Squibb Company, priority 2013, dated 2017)

target: IDO (Homo sapiens, UniProt P14902); assay: LLE_IDO_ABS_DR (IDO assay)
Sequence (P14902 whole entry): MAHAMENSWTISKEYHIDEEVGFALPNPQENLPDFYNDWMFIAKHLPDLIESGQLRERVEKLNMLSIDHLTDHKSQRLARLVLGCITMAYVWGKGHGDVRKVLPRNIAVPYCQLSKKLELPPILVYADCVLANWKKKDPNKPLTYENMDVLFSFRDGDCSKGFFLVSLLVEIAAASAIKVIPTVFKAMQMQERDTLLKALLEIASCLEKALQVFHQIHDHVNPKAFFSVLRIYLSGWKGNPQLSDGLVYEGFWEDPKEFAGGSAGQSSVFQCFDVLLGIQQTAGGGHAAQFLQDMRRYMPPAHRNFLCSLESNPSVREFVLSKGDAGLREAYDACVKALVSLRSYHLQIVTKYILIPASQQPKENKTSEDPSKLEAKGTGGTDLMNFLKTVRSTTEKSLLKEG

**Q.** How did the IC50 turn out when Cc1ccc(NC(=O)Nc2cc(-c3ccccc3-c3nnn[nH]3)ccc2N(CCC(F)(F)F)Cc2ccccc2)cc1 [Example 10, 1-(4-(Benzyl(3,3,3-trifluoropropyl)amino)-2′-(1H-tetrazol-5-yl)-[1,1′-biphenyl]-3-yl)-3-(p-tolyl)urea] was run?
**A.** Its IC50 is 100 nM.

**Q.** C=C(C)CN(CC(F)(F)F)c1ccc(-c2ccccc2C(=O)O)cc1NC(=O)Nc1ccc(C)cc1 [Example 471] was tested. Which IC50 did it give?
**A.** Its IC50 is 40 nM.

**Q.** How did the IC50 turn out when CC(C)CN(CC(C)C)c1ccc(-c2ccccc2-c2nn[nH]n2)cc1NC(=O)NC(C)(C)Cc1ccc(F)cc1 [Example 240, 1-(4-(diisobutylamino)-2′-(2H-tetrazol-5-yl)-[1,1′-biphenyl]-3-yl)-3-(1-(4-fluorophenyl)-2-methylpropan-2-yl)urea] was run?
**A.** The IC50 was 2230 nM.

**Q.** Cc1ccc(NC(=O)Nc2cc(-c3ccccc3-c3nnn[nH]3)ccc2N(CCCC(F)(F)F)Cc2ccc(Cl)cc2)cc1 [Example 320, 1-(4-((4-chlorobenzyl)(4,4,4-trifluorobutyl)amino)-2′-(1H-tetrazol-5-yl)-[1,1′-biphenyl]-3-yl)-3-(p-tolyl)urea] was tested. Which IC50 did it give?
**A.** The IC50 was 4.85 nM.

**Q.** With CC(C)CN(CC(C)C)c1ccc(-c2ccccc2-c2nnn[nH]2)cc1NC(=O)Nc1ccc(F)c(C(F)(F)F)c1 [Example 271, 1-(4-(diisobutylamino)-2′-(1H-tetrazol-5-yl)-[1,1′-biphenyl]-3-yl)-3-(4-fluoro-3-(trifluoromethyl)phenyl) urea] as the compound, how does the IC50 read?
**A.** The IC50 was 1010 nM.

**Q.** Which IC50 does the source give for Cc1ccc(NC(=O)Nc2cc(-c3ccccc3C(=O)O)ccc2N(C)C2CCCCCC2)cc1 [Example 80, 4′-(cycloheptyl(methyl)amino)-3′-(3-p-tolylureido)biphenyl-2-carboxylic acid] here?
**A.** Its IC50 is 8.75 nM.

**Q.** For C#CCN(CC(C)C)c1ccc(-c2ccccc2-c2nnn[nH]2)cc1NC(=O)Nc1ccc(C)cc1 [Example 24, 1-(4-(Isobutyl(prop-2-yn-1-yl)amino)-2′-(1H-tetrazol-5-yl)-[1,1′-biphenyl]-3-yl)-3-(p-tolyl)urea], which IC50 is on record?
**A.** The IC50 was 10 nM.

**Q.** For Cc1ccc(NC(=O)Nc2cc(-c3ccccc3-c3nnn[nH]3)ccc2N(CC(C)C)C2CCC2)cc1 [Example 184, 1-(4-(cyclobutyl(isobutyl)amino)-2′-(1H-tetrazol-5-yl)-[1,1′-biphenyl]-3-yl)-3-(p-tolyl)urea], which IC50 is on record?
**A.** Its IC50 is 10 nM.

**Q.** Which IC50 does the source give for O=C(Nc1cc(-c2ccccc2-c2nnn[nH]2)ccc1N(CCC(F)(F)F)Cc1ccc(Cl)cc1Cl)Nc1ccccc1C(F)(F)F [Example 335, 1-(4-((2,4-dichlorobenzyl)(3,3,3-trifluoropropyl)amino)-2′-(1H-tetrazol-5-yl)-[1,1′-biphenyl]-3-yl)-3-(2-(trifluoromethyl)phenyl)urea] here?
**A.** The IC50 was 1080 nM.

**Q.** Which IC50 does the source give for Cc1ccc(NC(=O)Nc2cc(-c3ccccc3C(=O)O)ccc2N(CCC(F)(F)F)CC(C)C)cc1 [Example 198, 4′-(isobutyl(3,3,3-trifluoropropyl)amino)-3′-(3-(p-tolyl)ureido)-[1,1′-biphenyl]-2-carboxylic acid] here?
**A.** Its IC50 is 210 nM.

**Q.** With CC(C)CN(c1ccc(-c2cc(F)ccc2C(=O)O)cc1NC(=O)Nc1ccccc1F)C1CCCC1 [Example 176, 4′-(cyclopentyl(isobutyl)amino)-5-fluoro-3′-(3-(2-fluorophenyl)ureido) biphenyl-2-carboxylic acid] as the compound, how does the IC50 read?
**A.** The IC50 was 7.86 nM.

**Q.** With COc1ccc(-c2ccc(N(CC(C)C)CC(C)C)c(NC(=O)Nc3ccc(C)cc3)c2)c(NS(=O)(=O)C(F)(F)F)c1 [Example 71, N-(4′-(diisobutylamino)-4-methoxy-3′-(3-p-tolylureido)biphenyl-2-yl)-1,1,1-trifluoromethane-sulfonamide] as the compound, how does the IC50 read?
**A.** The IC50 was 1740 nM.

**Q.** With Cc1ccc(NC(=O)Nc2cc(-c3cc(F)ccc3C(=O)O)ccc2N(CCC(C)(C)O)Cc2ccc(Cl)cc2)cc1 [Example 374] as the compound, how does the IC50 read?
**A.** The IC50 was 6840 nM.

**Q.** CC(C)CN(CC(C)C)c1ccc(-c2ccccc2-c2nnn[nH]2)cc1NC(=O)NCC(C)(C)C [Example 141, 1-(4-(diisobutylamino)-2′-(1H-tetrazol-5-yl)biphenyl-3-yl)-3-neopentylurea] was tested. Which IC50 did it give?
**A.** The IC50 was 430 nM.

**Q.** With O=C(Nc1ccc(F)cc1F)Nc1cc(-c2ccccc2-c2nnn[nH]2)ccc1N(CCC(F)(F)F)Cc1ccc(F)cc1 [Example 324, 1-(2,4-difluorophenyl)-3-(4-((4-fluorobenzyl) (3,3,3-trifluoropropyl)amino)-2′-(1H-tetrazol-5-yl)-[1,1′-biphenyl]-3-yl) urea] as the compound, how does the IC50 read?
**A.** Its IC50 is 160 nM.

**Q.** With Cc1ccc(NC(=O)Nc2cc(-c3ccccc3C(=O)O)ccc2Nc2ccccc2C(C)(C)C)cc1 [Example 206, 4′((2-(tert-butyl)phenyl)amino)-3′-(3-(p-tolyl)ureido)-[1,1′-biphenyl]-2-carboxylic acid] as the compound, how does the IC50 read?
**A.** The IC50 was 600 nM.

**Q.** Which IC50 does the source give for O=C(Nc1ccc(C2CC2)c(F)c1)Nc1cc(-c2ccccc2-c2nnn[nH]2)ccc1N(CCCC(F)(F)F)Cc1ccc(Cl)cc1 [Example 297, 1-(4-((4-chlorobenzyl)(4,4,4-trifluorobutyl)amino)-2′-(1H-tetrazol-5-yl)-[1,1′-biphenyl]-3-yl)-3-(4-cyclopropyl-3-fluorophenyl)urea] here?
**A.** Its IC50 is 10 nM.

**Q.** How did the IC50 turn out when CC(C)CN(CC(C)C)c1ccc(-c2ccccc2-c2nnn[nH]2)cc1NC(=O)Nc1cccc(S(N)(=O)=O)c1 [Example 266, 3-(3-(4-(diisobutylamino)-2′-(1H-tetrazol-5-yl)-[1,1′-biphenyl]-3-yl)ureido) benzenesulfonamide] was run?
**A.** Its IC50 is 4490 nM.

**Q.** CC(C)CN(CC(C)C)c1ccc(-c2ccccc2-c2nnn[nH]2)cc1NC(=O)Nc1c(F)cc(Cl)cc1F [Example 243, 1-(4-chloro-2,6-difluorophenyl)-3-(4-(diisobutylamino)-2′-(1H-tetrazol-5-yl)-[1,1′-biphenyl]-3-yl)urea] was tested. Which IC50 did it give?
**A.** The IC50 was 0.76 nM.

**Q.** Which IC50 does the source give for Cc1ccc(NC(=O)Nc2cc(-c3ccccc3-c3nnn[nH]3)ccc2N2CCC(c3nc(C)no3)C2)cc1 (stereo not drawn) [Example 389] here?
**A.** Its IC50 is 620 nM.

**Q.** For Cc1ccc(NC(=O)Nc2cc(-c3ccccc3-c3nnn[nH]3)ccc2N(CC(C)C)CC(C)CC(F)(F)F)cc1 (stereo not drawn) [Example 27, 1-(4-(Isobutyl(4,4,4-trifluoro-2-methylbutyl)amino)-2′-(1H-tetrazol-5-yl)-[1,1′-biphenyl]-3-yl)-3-(p-tolyl)urea], which IC50 is on record?
**A.** Its IC50 is 2.55 nM.

**Q.** How did the IC50 turn out when Cc1ccc(NC(=O)Nc2cc(-c3cscc3C(=O)O)ccc2N(CC(C)C)CC(C)C)cc1 [Example 35, 4-(4-(Diisobutylamino)-3-(3-p-tolylureido)phenyl)thiophene-3-carboxylic acid] was run?
**A.** Its IC50 is 10 nM.

**Q.** How did the IC50 turn out when Cc1ccc(NC(=O)Nc2cc(-c3ccccc3-c3nnn[nH]3)ccc2N(CC(C)C)CC(F)(F)F)cc1 [Example 475] was run?
**A.** Its IC50 is 50 nM.

**Q.** For CCCN(Cc1ccccc1)c1ccc(-c2ccccc2C(=O)O)cc1NC(=O)Nc1ccc(C)cc1 [Example 187, 4′-(benzyl(propyl)amino)-3′-(3-(p-tolyl)ureido)-[1,1′-biphenyl]-2-carboxylic acid], which IC50 is on record?
**A.** Its IC50 is 20 nM.

**Q.** For Cc1ccc(NC(=O)Nc2cc(-c3ccccc3C(=O)O)ccc2N(CCC2CC2)CC(C)C)cc1 [Example 132, 4′-((2-cyclopropylethyl) (isobutyl)amino)-3′-(3-p-tolylureido) biphenyl-2-carboxylic acid], which IC50 is on record?
**A.** Its IC50 is 50 nM.

**Q.** Which IC50 does the source give for C#CCN(CC(C)C)c1ccc(-c2cc(F)ccc2C(=O)O)cc1NC(=O)Nc1ccc(C)cc1 [Example 23, 5-Fluoro-4′-(isobutyl(prop-2-yn-1-yl)amino)-3′-(3-(p-tolyl)ureido)-[1,1′-biphenyl]-2-carboxylic acid] here?
**A.** The IC50 was 450 nM.

**Q.** For O=C(Nc1ccc(F)cc1F)Nc1cc(-c2ccccc2-c2nnn[nH]2)ccc1N(CCC(F)(F)F)Cc1ccc(C(F)(F)F)cc1 [Example 330, 1-(2′-(1H-tetrazol-5-yl)-4-((4-(trifluoromethyl)benzyl)(3,3,3-trifluoropropyl)amino)-[1,1′-biphenyl]-3-yl)-3-(2,4-difluorophenyl) urea], which IC50 is on record?
**A.** Its IC50 is 20 nM.

**Q.** With Cc1ccc(NC(=O)Nc2cc(-c3ccccc3-c3nnn[nH]3)ccc2N(CC(C)C)CC2CC2)cc1 [Example 92, 1-(4-((cyclopropylmethyl) (isobutyl)amino)-2′-(1H-tetrazol-5-yl)biphenyl-3-yl)-3-p-tolylurea] as the compound, how does the IC50 read?
**A.** Its IC50 is 20 nM.

**Q.** For Cc1ccc(NC(=O)Nc2cc(-c3ccccc3NS(C)(=O)=O)ccc2N(CC(C)C)CC(C)C)cc1 [Example 74, N-(4′-(diisobutylamino)-3′-(3-p-tolylureido)biphenyl-2-yl) methanesulfonamide], which IC50 is on record?
**A.** Its IC50 is 5770 nM.

**Q.** Which IC50 does the source give for Cc1ccc(NC(=O)Nc2cc(-c3ccccc3C(=O)O)ccc2N(CCC(F)(F)F)Cc2cccc(Cl)c2)cc1 [Example 11, 4′-((3-Chlorobenzyl)(3,3,3-trifluoropropyl)amino)-3′-(3-(p-tolyl)ureido)-[1,1′-biphenyl]-2-carboxylic acid] here?
**A.** The IC50 was 250 nM.

**Q.** With Cc1ccc(NC(=O)Nc2cc(-c3cc(F)ccc3C(=O)O)ccc2N(CCC(C)C(F)(F)F)CC(C)C)cc1 (stereo not drawn) [Example 203, 5-fluoro-4′-(isobutyl (4,4,4-trifluoro-3-methylbutyl)amino)-3′-(3-(p-tolyl)ureido)-[1,1′-biphenyl]-2-carboxylic acid] as the compound, how does the IC50 read?
**A.** Its IC50 is 7.31 nM.

**Q.** O=C(Nc1ccc(OC(F)(F)F)cc1)Nc1cc(-c2ccccc2-c2nnn[nH]2)ccc1N(CCC(F)(F)F)Cc1ccc(F)cc1 [Example 323, 1-(4-((4-fluorobenzyl)(3,3,3-trifluoropropyl)amino)-2′-(1H-tetrazol-5-yl)-[1,1′-biphenyl]-3-yl)-3-(4-(trifluoromethoxy)phenyl)urea] was tested. Which IC50 did it give?
**A.** Its IC50 is 540 nM.

**Q.** Which IC50 does the source give for CC(C)CN(CC(C)C)c1ccc(-c2ccccc2-c2nnn[nH]2)cc1NC(=O)Nc1cccc(-c2cnco2)c1 [Example 253, 1-(4-(diisobutylamino)-2′-(1H-tetrazol-5-yl)-[1,1′-biphenyl]-3-yl)-3-(3-(oxazol-5-yl)phenyl)urea] here?
**A.** Its IC50 is 2490 nM.

**Q.** With CC(C)CN(CC(C)C)c1ccc(-c2cc(F)ccc2C(=O)O)cc1NC(=O)Nc1ccc(F)cc1F [Example 146, 3′-(3-(2,4-difluorophenyl)ureido)-4′-(diisobutylamino)-5-fluorobiphenyl-2-carboxylic acid] as the compound, how does the IC50 read?
**A.** Its IC50 is 10 nM.

**Q.** Cc1ccc(NC(=O)Nc2cc(-c3ccccc3C(=O)O)ccc2N(CCC(F)(F)F)C2CCCCC2)cc1 [Example 197, 4′-(cyclohexyl(3,3,3-trifluoropropyl)amino)-3′-(3-(p-tolyl)ureido)-[1,1′-biphenyl]-2-carboxylic acid] was tested. Which IC50 did it give?
**A.** Its IC50 is 10 nM.

**Q.** How did the IC50 turn out when Cc1ccc(NC(=O)Nc2cc(-c3ccccc3-c3nnn[nH]3)ccc2N(CCC(F)(F)F)C2CCCCC2)cc1 [Example 195, 1-(4-(cyclohexyl(3,3,3-trifluoropropyl)amino)-2′-(1H-tetrazol-5-yl)-[1,1′-biphenyl]-3-yl)-3-(p-tolyl)urea] was run?
**A.** Its IC50 is 4.79 nM.
